Here are results for 1 molecule from US20090215822A1, “Substituted Oxadiazole Derivatives as Positive Allosteric Modulators of Metabotropic Glutamate Receptors” (NIKEM RESEARCH SRL, priority 2005, published 2009).

For data set [1], the target named is T1, rat mGluR5 receptor (Rattus norvegicus, UniProt P31424).
T1 construct: expressed in transfected cells
Briefly: mGluR5 assay on HEK-expressing rat mGluR5 (fluorescent cell based Ca2+ mobilization assay). The settings on record: HEK-293 cells stably expressing rat mGluR5; no co-addition of glutamate; mean of at least three independent experiments in duplicate; read-out: Ca++ Flux (mean EC50). Background: A change in cytosolic calcium serves as a functional read-out for many receptors and channels.

Data set [2] has as its target T2, mGluR5 (Rattus norvegicus, UniProt P31424).
T2 construct: positive allosteric modulators of mGluR5 receptors in native preparations; endogenous in cells; host or cells: primary cortical astrocytes from Sprague-Dawley rat embryos (E16-19)
Briefly: mGluR5 binding assay ([3H]-MPEP, rat brain membranes). As to conditions: 3 nM [3H]-MPEP, rat cortical membranes, 1 h at 4° C.; read-out: IC50, inhibition of [3H]-MPEP binding. From the text:
Activity of compounds of the invention was examined following a radioligand binding technique using whole rat brain and tritiated 2-methyl-6-(phenylethynyl)-pyridine ([^3H]-MPEP) as a ligand following similar methods than those described in Gasparini et al. (2002) Bioorg. Med. Chem. Lett. 12:407-409 and in Anderson et al. (2002) J. Pharmacol. Exp. Ther. 303 (3) 1044-1051.
Cortices were dissected out from brains of 200-300 g Sprague-Dawley rats (Charles River Laboratories, L'Arbresle, France). Tissues were homogenized in 10 volumes (vol/wt) of ice-cold 50 mM Hepes-NaOH (pH 7.4) using a Polytron disrupter (Kinematica A G, Luzern, Switzerland) and centrifuged for 30 min at 40,000 g. (4° C.). […] Protein concentration was determined by the Bradford method (Bio-Rad protein assay, Reinach, Switzerland) with bovine serum albumin as standard.
Membranes were thawed and resuspended in binding buffer containing 20 mM HEPES-NaOH, 3 mM MgCl2, 3 mM CaCl2, 100 mM NaCl, pH 7.4. […] Radioactivity was determined by liquid scintillation spectrometry using a 96-well plate reader (TopCount, Perkin-Elmer, Downers Grove, USA).
The inhibition curves were generated using the Prism GraphPad program (Graph Pad Software Inc, San Diego, USA). […] The mean of IC50 obtained from at least three independent experiments of selected molecules performed in duplicate were calculated.

Data set [3] deals with Male C57BL6/j mice. Briefly: Amphetamine model of schizophrenia (amphetamine-induced locomotor activity). Type of data set: in vivo. As to conditions: 30 mg/kg ip, 120 min before amphetamine 3.0 mg/kg s.c., first 30 minutes of a 60 minute session. The text has this:
Amphetamine-induced increases in locomotor ambulation are well known and are widely used as a model of the positive symptoms of schizophrenia. This model is based on evidence that amphetamine increases motor behaviors and can induce a psychotic state in humans (Yui et al. (2000) Ann. N.Y. Acad. Sci. 914:1-12). Further, it is well known that amphetamine-induced increases in locomotor activity are blocked by antipsychotics drugs that are effective in the treatment of schizophrenia (Arnt (1995) Eur. J. Pharmacol. 283:55-62).
Subjects: The present studies were performed in accordance with the animal care and use policies of Addex Pharmaceuticals and the laws and directives of Switzerland governing the care and use of animals. Male C57BL6/j mice (20-30 g) 7 weeks of age at the time of delivery were group housed in a temperature and humidity controlled facility on a 12 hour light/dark cycle for at least 7 days before use. Mice had access to food and water ad libitum except during locomotor activity experiments.
Assessment of locomotor (ambulatory) activity: The effects of compounds on amphetamine-induced locomotor activation in mice were tested. […] Locomotor activity (ambulations) was monitored by a videotracking system (VideoTrack, Viewpoint, Champagne au Mont d'Or, France) that recorded the ambulatory movements of mice. […] On test days, test compounds (10, 30, 50 or 100 mg/kg i.p. (intraperitoneal)) or vehicle were administered 120 minutes before amphetamine (3.0 mg/kg s.c.) or saline injection: Mice were placed into the locomotor boxes immediately after amphetamine or saline vehicle injection and their locomotor activity, defined as the distance traveled in centimeters (cm), was measured for 60 minutes.
Compound administration: The test compound was dissolved in a 5% DMSO/20% Tween 80/75% saline vehicle and administered in a volume of 10 ml/kg. […] D-amphetamine sulfate (Amino A G, Neuenhof, Switzerland) was dissolved in saline and administered at a dose of 3.0 mg/kg s.c. (expressed as the base) in a volume of 10 ml/kg. […]

T2 sequence (P31424 21-1203): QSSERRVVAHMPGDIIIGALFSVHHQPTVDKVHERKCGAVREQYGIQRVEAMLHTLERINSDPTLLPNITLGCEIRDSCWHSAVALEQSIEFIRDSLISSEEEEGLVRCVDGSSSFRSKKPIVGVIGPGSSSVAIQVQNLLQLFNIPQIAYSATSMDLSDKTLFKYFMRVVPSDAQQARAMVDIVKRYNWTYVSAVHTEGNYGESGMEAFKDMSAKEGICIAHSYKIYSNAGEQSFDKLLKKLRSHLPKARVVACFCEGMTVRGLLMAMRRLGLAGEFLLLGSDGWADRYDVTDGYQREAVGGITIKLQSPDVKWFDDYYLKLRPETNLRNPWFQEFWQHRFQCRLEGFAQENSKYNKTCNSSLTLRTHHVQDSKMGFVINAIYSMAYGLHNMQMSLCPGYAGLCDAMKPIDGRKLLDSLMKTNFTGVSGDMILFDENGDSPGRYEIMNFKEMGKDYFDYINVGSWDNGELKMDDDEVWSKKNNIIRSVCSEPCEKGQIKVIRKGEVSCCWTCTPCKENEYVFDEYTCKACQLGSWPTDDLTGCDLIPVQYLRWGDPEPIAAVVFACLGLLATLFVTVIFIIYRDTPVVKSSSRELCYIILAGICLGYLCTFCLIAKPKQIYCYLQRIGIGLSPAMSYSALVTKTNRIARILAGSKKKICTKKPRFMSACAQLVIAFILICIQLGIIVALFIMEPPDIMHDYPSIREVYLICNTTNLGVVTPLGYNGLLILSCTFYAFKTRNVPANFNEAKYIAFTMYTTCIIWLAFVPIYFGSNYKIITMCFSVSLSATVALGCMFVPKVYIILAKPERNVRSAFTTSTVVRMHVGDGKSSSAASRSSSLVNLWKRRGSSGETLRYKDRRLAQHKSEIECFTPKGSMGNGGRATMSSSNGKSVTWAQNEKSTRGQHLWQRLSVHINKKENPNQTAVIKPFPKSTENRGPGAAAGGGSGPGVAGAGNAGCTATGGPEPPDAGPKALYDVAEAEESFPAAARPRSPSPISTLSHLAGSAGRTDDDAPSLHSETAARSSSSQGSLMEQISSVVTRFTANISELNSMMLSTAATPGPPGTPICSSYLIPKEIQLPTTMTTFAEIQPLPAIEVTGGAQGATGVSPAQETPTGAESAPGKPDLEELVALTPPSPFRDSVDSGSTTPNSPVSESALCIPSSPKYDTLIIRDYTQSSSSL
T1 sequence (P31424 21-1171 isoform P31424-2 limits assumed): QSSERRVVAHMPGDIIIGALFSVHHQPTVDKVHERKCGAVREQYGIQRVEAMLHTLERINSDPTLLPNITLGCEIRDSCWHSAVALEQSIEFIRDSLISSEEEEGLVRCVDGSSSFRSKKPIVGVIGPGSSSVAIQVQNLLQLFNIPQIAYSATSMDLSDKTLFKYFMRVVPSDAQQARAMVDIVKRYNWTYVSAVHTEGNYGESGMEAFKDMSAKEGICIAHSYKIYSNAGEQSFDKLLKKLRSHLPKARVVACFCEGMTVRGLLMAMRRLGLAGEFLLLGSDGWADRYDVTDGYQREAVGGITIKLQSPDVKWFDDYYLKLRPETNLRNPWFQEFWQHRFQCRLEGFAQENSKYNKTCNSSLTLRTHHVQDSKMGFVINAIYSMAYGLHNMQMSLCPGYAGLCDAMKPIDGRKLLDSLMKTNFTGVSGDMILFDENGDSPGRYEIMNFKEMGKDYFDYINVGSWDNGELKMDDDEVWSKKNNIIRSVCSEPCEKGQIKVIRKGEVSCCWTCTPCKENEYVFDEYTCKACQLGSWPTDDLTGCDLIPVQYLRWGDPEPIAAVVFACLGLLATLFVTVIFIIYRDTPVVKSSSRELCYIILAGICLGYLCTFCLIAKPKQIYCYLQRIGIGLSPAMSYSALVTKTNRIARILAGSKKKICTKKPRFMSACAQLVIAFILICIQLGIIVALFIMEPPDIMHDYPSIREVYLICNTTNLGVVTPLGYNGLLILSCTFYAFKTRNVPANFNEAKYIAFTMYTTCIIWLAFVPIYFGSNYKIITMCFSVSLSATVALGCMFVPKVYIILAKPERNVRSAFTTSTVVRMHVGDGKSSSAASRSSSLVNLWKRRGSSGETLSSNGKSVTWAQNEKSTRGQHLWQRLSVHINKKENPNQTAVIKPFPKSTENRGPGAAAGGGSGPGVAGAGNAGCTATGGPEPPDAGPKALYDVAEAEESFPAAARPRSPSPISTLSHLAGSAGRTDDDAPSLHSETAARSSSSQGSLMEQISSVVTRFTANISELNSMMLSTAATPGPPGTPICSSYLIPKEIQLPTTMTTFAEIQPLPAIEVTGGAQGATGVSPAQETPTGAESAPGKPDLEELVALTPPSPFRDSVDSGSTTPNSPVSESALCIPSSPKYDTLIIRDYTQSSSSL

For `O=C(c1ccc(F)cc1)N1CCC[C@H](c2noc(-c3ccc(F)cc3)n2)C1` [Example 1, (4-Fluoro-phenyl)-{(S)-3-[5-(4-fluoro-phenyl)-[1,2,4]oxadiazol-3-yl]-piperidin-1-yl}-methanone], the melting point (in general, the temperature, or range, at which the solid turns liquid) fell in the range of 157 to 160 °C. In addition, the EC50 (in general, the concentration giving half of the maximal effect) in data set [1] is less than 1 µM. The 50% inhibitory concentration (IC50) – broadly, the concentration at which inhibition is half-maximal – in data set [2] is less than 30 µM. The “increase in locomotor activity induced by amphetamine” value (“increase” below) in data set [3] was “significantly attenuated”. The “increase” value in data set [3] (listed as compound # 1) was “significantly attenuated”. The “increase” value in data set [3] (listed as example #1) is on record as “significantly attenuate”.
